Values after ≈ are worked out from the molar mass of the structure shown. Residues, ends and D or L forms follow the SMILES beside them.
How the values were obtained:
[1] = Retention time of the compound by RP-HPLC analysis; type: physicochemical
Staphylococcus aureus [2] = assay: Antibacterial activity against methicillin-sensitive Staphylococcus aureus ATCC 29213 incubated for 16 to 20 hrs by CLSI based broth microdilution method; type: functional; settings: time 16-20 hrs
[3] = Nephrotoxicity against HEK293 cells assessed as cell viability at 12.5 uM incubated for 24 hrs by MTT assay relative to control; type: toxicity, cell-based; settings: human, read-out: Activity
Staphylococcus aureus [4] = assay: Antibacterial activity against methicillin-resistant Staphylococcus aureus ATCC USA300 incubated for 16 to 20 hrs by CLSI based broth microdilution method; type: functional; settings: time 16-20 hrs
[5] = Hemolytic activity in sheep erythrocytes incubated for 30 mins by absorbance based assay; type: toxicity, cell-based, Ovis aries, Erythrocyte
Staphylococcus aureus [6] = assay: Antibacterial activity against methicillin-sensitive Staphylococcus aureus ATCC 49775 incubated for 16 to 20 hrs by CLSI based broth microdilution method; type: functional; settings: time 16-20 hrs
Staphylococcus aureus [7] = assay: Antibacterial activity against methicillin-resistant Staphylococcus aureus […] incubated for 16 to 20 hrs by CLSI based broth microdilution method; type: functional; settings: time 16-20 hrs
HEK293 = assay: Nephrotoxicity against HEK293 cells at MIC incubated for 24 hrs by MTT assay; type: toxicity, cell-based; settings: human, hek293, 24 h

| Structure (SMILES) | Retention_time [1] [min] | MIC (Staphylococcus aureus [2]) [µg/mL] | viability at 24 h, 12.5 µM [3] [%] | MIC (Staphylococcus aureus [4]) [µg/mL] | HC50 at 0.5 h [5] [µM] | MIC (Staphylococcus aureus [6]) [µg/mL] | MIC (Staphylococcus aureus [7]) [µg/mL] | Activity (HEK293) |
| --- | --- | --- | --- | --- | --- | --- | --- | --- |
| CC(C)C[C@@H]1NC(=O)[C@H](CCCN)NC(=O)[C@H](C(C)C)NC(=O)[C@@H]2CCCN2C(=O)[C@@H](Cc2ccccc2)NC(=O)[C@H](CC(C)C)NC(=O)[C@H](CCCN)NC(=O)[C@H](C(C)C)NC(=O)[C@@H]2CCCN2C(=O)[C@@H](Cc2ccccc2)NC1=O [GRAMICIDIN S] (HELM PEPTIDE1{L.[dF].P.V.[Orn].L.[dF].P.V.[Orn]}$PEPTIDE1,PEPTIDE1,1:R1-10:R2$$$V2.0) | 18.57 | 4 (≈ 3.5 µM) | 25 | 4 (≈ 3.5 µM) | 60.1 | 4 (≈ 3.5 µM) | 4 (≈ 3.5 µM) |  |
| CC(C)C[C@@H]1NC(=O)[C@H](CCCN)NC(=O)[C@H](C(C)C)NC(=O)[C@@H]2CCCN2C(=O)[C@@H](Cc2ccccc2)NC(=O)[C@H](CC(C)C)NC(=O)[C@H](CCCNC(=N)N)NC(=O)[C@H](C(C)C)NC(=O)[C@@H]2CCCN2C(=O)[C@@H](CCCNC(=N)N)NC1=O (HELM PEPTIDE1{L.[dF].P.V.[Orn].L.[dR].P.V.R}$PEPTIDE1,PEPTIDE1,1:R1-10:R2$$$V2.0) | 16.47 | 8 (≈ 6.71 µM) |  | 8 (≈ 6.71 µM) | 87.2 | 8 (≈ 6.71 µM) | 8 (≈ 6.71 µM) |  |
| CC(C)C[C@@H]1NC(=O)[C@H](CCCNC(=N)N)NC(=O)[C@H](C(C)C)NC(=O)[C@@H]2CCCN2C(=O)[C@@H](Cc2ccccc2)NC(=O)[C@H](CC(C)C)NC(=O)[C@H](CCCNC(=N)N)NC(=O)[C@H](C(C)C)NC(=O)[C@@H]2CCCN2C(=O)[C@@H](Cc2ccccc2)NC1=O | 18.62 | 8 (≈ 6.53 µM) |  | 8 (≈ 6.53 µM) | 25.4 | 8 (≈ 6.53 µM) | 8 (≈ 6.53 µM) |  |
| CC(C)C[C@@H]1NC(=O)[C@H](CCCN)NC(=O)[C@H](C(C)C)NC(=O)[C@@H]2CCCN2C(=O)[C@@H](Cc2ccccc2)NC(=O)[C@H](CC(C)C)NC(=O)[C@H](CCCN)NC(=O)[C@H](C(C)C)NC(=O)[C@@H]2CCCN2C(=O)[C@@H](CCCNC(=N)N)NC1=O (HELM PEPTIDE1{L.[dF].P.V.[Orn].L.[dR].P.V.[Orn]}$PEPTIDE1,PEPTIDE1,1:R1-10:R2$$$V2.0) | 16.22 | 8 (≈ 6.95 µM) | ~90 | 8 (≈ 6.95 µM) | > 100 | 8 (≈ 6.95 µM) | 8 (≈ 6.95 µM) | Non-Toxic |
| CC(C)C[C@@H]1NC(=O)[C@H](CCCNC(=N)N)NC(=O)[C@H](C(C)C)NC(=O)[C@@H]2CCCN2C(=O)[C@@H](Cc2c[nH]cn2)NC(=O)[C@H](CC(C)C)NC(=O)[C@H](CCCN)NC(=O)[C@H](C(C)C)NC(=O)[C@@H]2CCCN2C(=O)[C@@H](Cc2ccccc2)NC1=O | 16.09 | 16 (≈ 13.6 µM) |  | 16 (≈ 13.6 µM) | > 100 | 16 (≈ 13.6 µM) | 16 (≈ 13.6 µM) |  |
| CC(C)C[C@@H]1NC(=O)[C@H](CCCN)NC(=O)[C@H](C(C)C)NC(=O)[C@@H]2CCCN2C(=O)[C@@H](Cc2ccccc2)NC(=O)[C@H](CC(C)C)NC(=O)[C@H](CCCNC(=N)N)NC(=O)[C@H](C(C)C)NC(=O)[C@@H]2CCCN2C(=O)[C@@H](Cc2ccccc2)NC1=O | 18.74 | 8 (≈ 6.76 µM) |  | 8 (≈ 6.76 µM) | 46.2 | 4 (≈ 3.38 µM) | 16 (≈ 13.5 µM) |  |
| CC(C)C[C@@H]1NC(=O)[C@H](CCCN)NC(=O)[C@H](C(C)C)NC(=O)[C@@H]2CCCN2C(=O)[C@@H](CCCNC(=N)N)NC(=O)[C@H](CC(C)C)NC(=O)[C@H](CCCN)NC(=O)[C@H](C(C)C)NC(=O)[C@@H]2CCCN2C(=O)[C@@H](CCCNC(=N)N)NC1=O | 14.56 | 16 (≈ 13.8 µM) |  | 32 (≈ 27.6 µM) | > 100 | 32 (≈ 27.6 µM) | 16 (≈ 13.8 µM) |  |
| CC(C)C[C@@H]1NC(=O)[C@H](CCCN)NC(=O)[C@H](C(C)C)NC(=O)[C@@H]2CCCN2C(=O)[C@@H](Cc2c[nH]cn2)NC(=O)[C@H](CC(C)C)NC(=O)[C@H](CCCN)NC(=O)[C@H](C(C)C)NC(=O)[C@@H]2CCCN2C(=O)[C@@H](Cc2c[nH]cn2)NC1=O | 14.01 | 256 (≈ 228 µM) |  | > 256 | > 100 | 256 (≈ 228 µM) | 256 (≈ 228 µM) |  |
| CC(C)C[C@@H]1NC(=O)[C@H](CCCNC(=N)N)NC(=O)[C@H](C(C)C)NC(=O)[C@@H]2CCCN2C(=O)[C@@H](Cc2ccccc2)NC(=O)[C@H](CC(C)C)NC(=O)[C@H](CCCN)NC(=O)[C@H](C(C)C)NC(=O)[C@@H]2CCCN2C(=O)[C@@H](CCCNC(=N)N)NC1=O | 16.47 | 8 (≈ 6.71 µM) |  | 8 (≈ 6.71 µM) | > 100 | 8 (≈ 6.71 µM) | 8 (≈ 6.71 µM) |  |
| CC(C)C[C@@H]1NC(=O)[C@H](CCCN)NC(=O)[C@H](C(C)C)NC(=O)[C@H](Cc2c[nH]cn2)NC(=O)[C@@H](Cc2ccccc2)NC(=O)[C@H](CC(C)C)NC(=O)[C@H](CCCN)NC(=O)[C@H](C(C)C)NC(=O)[C@H](Cc2c[nH]cn2)NC(=O)[C@@H](Cc2ccccc2)NC1=O | 14.74 | 64 (≈ 52.4 µM) |  | 128 (≈ 105 µM) | > 100 | 64 (≈ 52.4 µM) | 64 (≈ 52.4 µM) |  |

Reference: ChEMBL document CHEMBL5500408, “A New Gramicidin S Analogue with Potent Antibacterial Activity and Negligible Hemolytic Toxicity” (J Med Chem, 2024)
